Experimental data taken from US10968260B2, “Curcumin-peptide conjugates and formulations thereof” (HAUS BIOCEUTICALS, INC., priority 2014, dated 2021).

Key:
[1] = design: species or system mice; conditions: mouse, in vivo
Experimental: Mice weighed ˜25 g each. Blood was drawn every 30 minutes for 180 total minutes.

[2] = test system: advanced Alzheimer's disease; assay: Clinical case study: Alzheimer's disease (Example 5); type: in vivo, human; conditions: Case 20, 1.2 g curcumin bid, after 30 days
Description: A person was presented with advanced Alzheimer's disease. Prior to dosing, they failed all short term memory questions on a test. […] They have continued to have lasting benefit from the therapy.

absorbability / bioavailability [1]: very poor absorbability
Compound: COc1cc(C=CC(=O)CC(=O)C=Cc2ccc(O)c(OC)c2)ccc1O [curcumin, 1,7-bis[4-hydroxy-3-methoxyphenyl]-1,6-heptadiene-3,5-dione]
short term memory questions on a test, advanced Alzheimer's disease [2]: passed all short term memory questions
